Biological target: Human factor D (Homo sapiens (Human), UniProt P00746)
Test: Human Factor D Assay
Format: biochemical
Details: Human factor D 80 nM, substrate Z-L-Lys-SBzl, assay of Example 12
Description: Example 12. Human Factor D Assay
Human factor D (purified from human serum, Complement Technology, Inc.) at 80 nM final concentration is incubated with test compound at various concentrations for 5 minutes at room temperature in 50 mM Tris, 1M NaCl, pH 7.5. A synthetic substrate Z-L-Lys-SBzl and DTNB (Ellman's reagent) are added to final concentrations of 100 μM each. The increase in color is recorded at OD405 nm in a microplate in kinetic mode over 30 minutes with 30 second time points in a spectrofluorimeter. IC50 values are calculated by non-linear regression from the percentage of inhibition of complement factor D activity as a function of test compound concentration.

Sequence of Human factor D (P00746 26-253): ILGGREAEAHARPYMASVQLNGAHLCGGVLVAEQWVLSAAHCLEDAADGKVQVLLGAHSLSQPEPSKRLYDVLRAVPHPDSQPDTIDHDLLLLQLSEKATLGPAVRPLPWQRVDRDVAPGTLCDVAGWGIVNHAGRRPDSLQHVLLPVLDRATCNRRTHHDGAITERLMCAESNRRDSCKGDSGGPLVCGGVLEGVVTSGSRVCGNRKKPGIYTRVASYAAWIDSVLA

CCS(=O)(=O)NC(=O)C#Cc1ccc2c(c1)c(C(C)=O)cn2CC(=O)N1C[C@H](F)C[C@H]1C(=O)NCc1cccc(Cl)c1F [Compound 8, (2S,4R)-1-(2-(3-acetyl-5-(3-(ethylsulfonamido)-3-oxoprop-1-ynyl)-1H-indol-1-yl)acetyl)-N-(3-chloro-2-fluorobenzyl)-4-fluoropyrrolidine-2-carboxamide]
IC50: < 1000 nM

N#Cc1cccc(NC(=O)[C@@H]2C[C@H]3C[C@H]3N2C(=O)Cn2nc(C(N)=O)c3cc(C#Cc4ncccn4)ccc32)n1 [Compound 57, 1-(2-((1R,3S,5R)-3-(6-cyanopyridin-2-ylcarbamoyl)-2-azabicyclo[3.1.0]hexan-2-yl)-2-oxoethyl)-5-(pyrimidin-2-ylethynyl)-1H-indazole-3-carboxamide]
IC50: < 1000 nM

NC(=O)c1nn(CC(=O)N2C[C@H](F)C[C@H]2C(=O)Nc2cncc(C(F)(F)F)n2)c2ccc(C#Cc3ncc(F)cn3)cc12 [Compound 70, 1-(2-((2S,4R)-4-fluoro-2-(6-(trifluoromethyl)pyrazin-2-ylcarbamoyl)pyrrolidin-1-yl)-2-oxoethyl)-5-((5-fluoropyrimidin-2-yl)ethynyl)-1H-indazole-3-carboxamide]
IC50: < 1000 nM

NC(=O)c1nn(CC(=O)N2C[C@H](F)C[C@H]2C(=O)Nc2cccc(-c3ccccc3Cl)c2F)c2ccc(C#Cc3ncccn3)cc12 [Compound 22, 1-(2-((2S,4R)-2-(2′-chloro-2-fluorobiphenyl-3-ylcarbamoyl)-4-fluoropyrrolidin-1-yl)-2-oxoethyl)-5-(pyrimidin-2-ylethynyl)-1H-indazole-3-carboxamide]
IC50: < 1000 nM

NC(=O)c1nn(CC(=O)N2C[C@H](F)C[C@H]2C(=O)Nc2cccc(Cl)n2)c2ccc(C#Cc3ccnnc3)cc12 [Compound 80, 1-(2-((2S,4R)-2-(6-chloropyridin-2-ylcarbamoyl)-4-fluoropyrrolidin-1-yl)-2-oxoethyl)-5-(pyridazin-4-ylethynyl)-1H-indazole-3-carboxamide]
IC50: < 1000 nM

CCS(=O)(=O)NC(=O)C#Cc1ccc2c(C(C)=O)cn(CC(=O)N3C[C@H](F)C[C@H]3C(=O)NCc3cccc(Cl)c3F)c2c1 [Compound 10, (2S,4R)-1-(2-(3-acetyl-6-(3-(ethylsulfonamido)-3-oxoprop-1-ynyl)-1H-indol-1-yl)acetyl)-N-(3-chloro-2-fluorobenzyl)-4-fluoropyrrolidine-2-carboxamide]
IC50: < 1000 nM

NC(=O)c1nn(CC(=O)N2[C@@H]3C[C@@H]3C[C@H]2C(=O)Nc2cccc(Br)n2)c2ccc(C#Cc3ncc(F)cn3)cc12 [Compound 43, 1-(2-((1R,3S,5R)-3-(6-bromopyridin-2-ylcarbamoyl)-2-azabicyclo[3.1.0]hexan-2-yl)-2-oxoethyl)-5-((5-fluoropyrimidin-2-yl)ethynyl)-1H-indazole-3-carboxamide]
IC50: < 1000 nM

NC(=O)c1nn(CC(=O)N2C[C@H](F)C[C@H]2C(=O)Nc2cccc(OC(F)(F)F)c2F)c2ccc(C#Cc3ncccn3)cc12 [Compound 38, 1-(2-((2S,4R)-4-fluoro-2-(2-fluoro-3-(trifluoromethoxy)phenyl-carbamoyl)pyrrolidin-1-yl)-2-oxoethyl)-5-(pyrimidin-2-ylethynyl)-1H-indazole-3-carboxamide]
IC50: < 1000 nM

COc1ncc(C#Cc2ccc3c(c2)c(C(N)=O)nn3CC(=O)N2C[C@H](F)C[C@H]2C(=O)Nc2cccc(Br)n2)cn1 [Compound 92, 1-(2-((2S,4R)-2-(6-bromopyridin-2-ylcarbamoyl)-4-fluoropyrrolidin-1-yl)-2-oxoethyl)-5-((2-methoxypyrimidin-5-yl)ethynyl)-1H-indazole-3-carboxamide]
IC50: < 1000 nM

CC(=O)c1cn(CC(=O)N2C[C@H](F)C[C@H]2C(=O)NCc2cccc(Cl)c2F)c2cc(C#CC(=O)O)ccc12 [Compound 2, 3-(3-acetyl-1-(2-((2S,4R)-2-(3-chloro-2-fluorobenzylcarbamoyl)-4-fluoropyrrolidin-1-yl)-2-oxoethyl)-1H-indol-6-yl)propiolic acid]
IC50: < 1000 nM

NC(=O)c1nn(CC(=O)N2C[C@H](F)C[C@H]2C(=O)Nc2ccc3cccc(Cl)c3n2)c2ccc(C#Cc3ncc(F)cn3)cc12 [Compound 71, 1-(2-((2S,4R)-2-(8-chloroquinolin-2-ylcarbamoyl)-4-fluoropyrrolidin-1-yl)-2-oxoethyl)-5-((5-fluoropyrimidin-2-yl)ethynyl)-1H-indazole-3-carboxamide]
IC50: < 1000 nM

NC(=O)c1nn(CC(=O)N2C[C@H](F)C[C@H]2C(=O)Nc2cccc(Br)n2)c2ccc(C#Cc3ccccn3)cc12 [Compound 48, 1-(2-((2S,4R)-2-(6-bromopyridin-2-ylcarbamoyl)-4-fluoropyrrolidin-1-yl)-2-oxoethyl)-5-(pyridin-2-ylethynyl)-1H-indazole-3-carboxamide]
IC50: < 1000 nM

NC(=O)c1nn(CC(=O)N2C[C@H](F)C[C@H]2C(=O)Nc2cccc(-c3ccccc3Cl)c2F)c2ccc(C#Cc3ccnnc3)cc12 [Compound 79, 1-(2-((2S,4R)-2-(2′-chloro-2-fluorobiphenyl-3-ylcarbamoyl)-4-fluoropyrrolidin-1-yl)-2-oxoethyl)-5-(pyridazin-4-ylethynyl)-1H-indazole-3-carboxamide]
IC50: < 1000 nM

NC(=O)c1nn(CC(=O)N2[C@@H]3C[C@@H]3C[C@H]2C(=O)Nc2cccc(Cl)n2)c2ccc(C#Cc3ncccn3)cc12 [Compound 56, 1-(2-((1R,3S,5R)-3-(6-chloropyridin-2-ylcarbamoyl)-2-azabicyclo[3.1.0]hexan-2-yl)-2-oxoethyl)-5-(pyrimidin-2-ylethynyl)-1H-indazole-3-carboxamide]
IC50: < 1000 nM

CC(=O)c1cn(CC(=O)N2C[C@H](F)C[C@H]2C(=O)NCc2cccc(Cl)c2F)c2ccc(C#Cc3ccncc3)cc12 [Compound 17, (2S,4R)-1-(2-(3-acetyl-5-(pyridin-4-ylethynyl)-1H-indol-1-yl)acetyl)-N-(3-chloro-2-fluorobenzyl)-4-fluoropyrrolidine-2-carboxamide]
IC50: < 1000 nM

COC(=O)C#Cc1ccc2c(C(C)=O)cn(CC(=O)N3C[C@H](F)C[C@H]3C(=O)NCc3cccc(Cl)c3F)c2c1 [Compound 4, methyl 3-(3-acetyl-1-(2-((2S,4R)-2-(3-chloro-2-fluorobenzylcarbamoyl)-4-fluoropyrrolidin-1-yl)-2-oxoethyl)-1H-indol-6-yl)propiolate]
IC50: < 1000 nM

NC(=O)c1nn(CC(=O)N2[C@@H]3C[C@@H]3C[C@H]2C(=O)Nc2cccc(-c3ccccc3Cl)c2F)c2ccc(C#Cc3ncccn3)cc12 [Compound 27, 1-(2-((1R,3S,5R)-3-(2′ chloro-2-fluorobiphenyl-3-ylcarbamoyl)-2-azabicyclo[3.1.0]hexan-2-yl)-2-oxoethyl)-5-(pyrimidin-2-ylethynyl)-1H-indazole-3-carboxamide]
IC50: < 1000 nM

CC(=O)c1cn(CC(=O)N2C[C@H](F)C[C@H]2C(=O)NCc2cccc(Cl)c2F)c2ccc(C#Cc3cnsc3)cc12 [Compound 18, (2S,4R)-1-(2-(3-acetyl-5-(isothiazol-4-ylethynyl)-1H-indol-1-yl)acetyl)-N-(3-chloro-2-fluorobenzyl)-4-fluoropyrrolidine-2-carboxamide]
IC50: < 1000 nM

NC(=O)c1nn(CC(=O)N2C[C@H](F)C[C@H]2C(=O)Nc2cccc(-c3cncnc3)c2F)c2ccc(C#Cc3ncccn3)cc12 [Compound 69, 1-(2-((2S,4R)-4-fluoro-2-(2-fluoro-3-(pyrimidin-5-yl)phenylcarbamoyl)pyrrolidin-1-yl)-2-oxoethyl)-5-(pyrimidin-2-ylethynyl)-1H-indazole-3-carboxamide]
IC50: < 1000 nM

CC(=O)c1cn(CC(=O)N2C[C@H](F)C[C@H]2C(=O)NCc2cccc(Cl)c2F)c2ccc(C#Cc3ncc(O)cn3)cc12 [Compound 13, (2S,4R)-1-(2-(3-acetyl-5-((5-hydroxypyrimidin-2-yl)ethynyl)-1H-indol-1-yl)acetyl)-N-(3-chloro-2-fluorobenzyl)-4-fluoropyrrolidine-2-carboxamide]
IC50: < 1000 nM

NC(=O)c1nn(CC(=O)N2C[C@H](F)C[C@H]2C(=O)NCc2cccc(Cl)c2F)c2ccc(C#Cc3ncc(F)cn3)cc12 [Compound 40, 1-(2-((2S,4R)-2-(3-chloro-2-fluorobenzylcarbamoyl)-4-fluoropyrrolidin-1-yl)-2-oxoethyl)-5-((5-fluoropyrimidin-2-yl)ethynyl)-1H-indazole-3-carboxamide]
IC50: < 1000 nM

NC(=O)c1nn(CC(=O)N2[C@@H]3C[C@@H]3C[C@H]2C(=O)Nc2cccc(Br)n2)c2ccc(C#Cc3ccc(C(F)(F)F)cn3)cc12 [Compound 59, 1-(2-((1R,3S,5R)-3-(6-bromopyridin-2-ylcarbamoyl)-2-azabicyclo[3.1.0]hexan-2-yl)-2-oxoethyl)-5-((5-(trifluoromethyl)pyridin-2-yl)ethynyl)-1H-indazole-3-]
IC50: < 1000 nM

CC(=O)c1cn(CC(=O)N2C[C@H](F)C[C@H]2C(=O)Nc2cccc(Br)n2)c2ccc(C#Cc3ncccn3)cc12 [Compound 42, (2S,4R)-1-(2-(3-acetyl-5-(pyrimidin-2-ylethynyl)-1H-indol-1-yl)acetyl)-N-(6-bromopyridin-2-yl)-4-fluoropyrrolidine-2-carboxamide]
IC50: < 1000 nM

NC(=O)c1nn(CC(=O)N2C[C@H](F)C[C@H]2C(=O)Nc2cccc(-c3ccccc3Cl)c2F)c2ccc(C#Cc3cccnn3)cc12 [Compound 73, 1-(2-((2S,4R)-2-(2′-chloro-2-fluorobiphenyl-3-ylcarbamoyl)-4-fluoropyrrolidin-1-yl)-2-oxoethyl)-5-(pyridazin-3-ylethynyl)-1H-indazole-3-carboxamide]
IC50: < 1000 nM

NC(=O)c1nn(CC(=O)N2[C@@H]3C[C@@H]3C[C@H]2C(=O)Nc2cccc(Br)n2)c2ccc(C#Cc3ncccn3)cc12 [Compound 41, 1-(2-((1R,3S,5R)-3-(6-bromopyridin-2-ylcarbamoyl)-2-azabicyclo[3.1.0]hexan-2-yl)-2-oxoethyl)-5-(pyrimidin-2-ylethynyl)-1H-indazole-3-carboxamide]
IC50: < 1000 nM

Source: patent publication US9828396B2, “Alkyne compounds for treatment of complement mediated disorders” (Achillion Pharmaceuticals, Inc., priority 2014, dated 2017)
